The structures appear in SMILES notation.

Here are results for seven molecules from ChEMBL document CHEMBL2429808, “Synthesis, characterization, and cytotoxicity of N-2-hydroxyethyl-substituted azastigmastanes” (Med Chem Res, 2013).

Holding throughout (format): functional, cell-based
For one assay, the system named is HepG2. Briefly: Cytotoxicity against human HepG2 cells after 96 hrs by MTT assay. Conditions: for IC50: HepG2, 96 h.
Another assay deals with HCT-116. Nature of the assay: Cytotoxicity against human HCT116 cells after 96 hrs by MTT assay. The note with it: for IC50: HCT-116, 96 h. Background: Tetrazolium assays rely on reduction of a dye to a coloured formazan, in cell work by metabolically active cells.
For the next assay, the system named is MCF7. Nature of the assay: Cytotoxicity against human MCF7 cells after 96 hrs by MTT assay. The note with it: for IC50: MCF7, 96 h.

`CC[C@H](CC[C@@H](C)[C@H]1CC[C@H]2[C@@H]3CC(=O)N(CCO)[C@H]4C[C@@H](OC(C)=O)CC[C@]4(C)[C@H]3CC[C@]12C)C(C)C`: the Activity result in the assay on HepG2, in the assay on HCT-116 and in the assay with MCF7 was “Dose-dependent effect” in each case. The values for the IC50 with HepG2, with HCT-116 and in the assay on MCF7 were 4.52 µM, 4.24 µM and 3.02 µM, respectively.

In the case of `CC[C@H](CC[C@@H](C)[C@H]1CC[C@H]2[C@@H]3CC(=O)[C@H]4C[C@@H](Cl)CC[C@]4(C)[C@H]3CC[C@]12C)C(C)C`, the IC50 in the assay on HepG2 was found to be 3.56 µM; with HCT-116 it was 3.15 µM; with MCF7, 3.01 µM.

In the case of `CC[C@H](CC[C@@H](C)[C@H]1CC[C@H]2[C@@H]3CC(=O)N(CCO)[C@H]4C[C@@H](Cl)CC[C@]4(C)[C@H]3CC[C@]12C)C(C)C`, the Activity entry in the assay with HepG2, in the assay with HCT-116 and with MCF7 was “Dose-dependent effect” each time. Moreover, the concentration for half-maximal inhibition (IC50) in the assay on HepG2 came to 3.02 µM; in the assay on HCT-116, 2.72 µM; in the assay with MCF7, 2.55 µM.

For `CC[C@H](CC[C@@H](C)[C@H]1CC[C@H]2[C@@H]3CC(=O)[C@H]4CCCC[C@]4(C)[C@H]3CC[C@]12C)C(C)C`, the IC50 in the assay on HepG2 is 5.22 µM; in the assay on HCT-116, 4.51 µM; in the assay with MCF7, 3.34 µM.

Take `CC[C@H](CC[C@@H](C)[C@H]1CC[C@H]2[C@@H]3CC(=O)N(CCO)[C@H]4CCCC[C@]4(C)[C@H]3CC[C@]12C)C(C)C`: the Activity entry in the assay with HepG2, in the assay with HCT-116 and in the assay with MCF7 was “Dose-dependent effect” each time. Further, the IC50 in the assay on HepG2 is 4.68 µM; with HCT-116, 3.96 µM; in the assay on MCF7 it was 2.98 µM.

For the molecule `COc1cccc2c1C(=O)c1c(O)c3c(c(O)c1C2=O)C[C@@](O)(C(=O)CO)C[C@@H]3O[C@H]1C[C@H](N)[C@H](O)[C@H](C)O1` [DOXORUBICIN], the IC50 with HepG2 came out at 2.68 µM; in the assay with HCT-116, 2.56 µM; in the assay on MCF7, 2.44 µM.

As to `CC[C@H](CC[C@@H](C)[C@H]1CC[C@H]2[C@@H]3CC(=O)[C@H]4C[C@@H](OC(C)=O)CC[C@]4(C)[C@H]3CC[C@]12C)C(C)C`, the half-inhibitory concentration (IC50) in the assay with HepG2 is 4.87 µM; with HCT-116 it was 5.02 µM; with MCF7, 3.54 µM.

By IC50 is commonly meant the concentration that gives 50% inhibition. Low values mean inhibition by little substance, high ones a need for much substance.
